Experimental data: US5405849A, “Angiotensin II receptor blocking 2,3,6 substituted quinazolinones” (American Cyanamid Company, priority 1993, dated 1995)

Tests used:
[1] = target: angiotensin II receptors; assay: Angiotensin II receptor binding (displacement of 3H-angiotensin II), rat adrenocortical microsomes; settings: 2 nM 3H-angiotensin II
Description: The source of the angiotensin II receptors utilized in the screen is from rat adrenocortical microsomes. The cortices are placed in ice cold sucrose buffer (0.2 m sucrose, 1 mm EDTA, 10 mm Trizma base, pH 7.4) and homogenized in a chilled ground glass tissue grinder. The homogenate is centrifuged at 3000×g for 10 min. and the resultant supernatant is decanted through cheesecloth and centrifuged at 12,000×g for 3 min. […] Binding assays are performed by incubating aliquots of freshly prepared microsomes in the absence or presence of compound (40 uM final concentration). Ten minutes later, ^3 H-angiotensin II is added to each tube (2 nM final concentration) and incubated for 60 minutes at […]. The reaction is terminated by the addition of 3 ml of cold assay buffer without albumin and the bound and free radioactivity is separated rapidly through glass-fiber filters prewetted with assay buffer. After two additional 3 ml rinses, the filters are placed in scintillation fluid and counted in a scintillation counter to determine trapped radioactivity.

[2] = test system: angiotensin II (AII) vasopressor response; assay: AII challenge: antagonism of the vasopressor response of angiotensin II in conscious Okamoto-Aoki SHR; assay type: in vivo, rat (Okamoto-Aoki SHR); settings: for inhibition in vivo at 1 mg/kg / inhibition in vivo at 2 mg/kg: Rattus norvegicus, iv
Method in brief: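 Conscious male Okamoto-Aoki spontaneously hypertensive rats, 16-20 weeks old and about 330 g, received caudal arterial and venous cannulae under local 2% procaine anesthesia. They were kept upright in restraining cages while pulsatile blood pressure was recorded by pressure transducer. The systolic pressure rise to i.v. angiotensin II was measured before and after test compound dosing. Inhibition was expressed relative to each rat's predose response, taken as 100%.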

SMILES: CCCCc1nc2ccc(C(OC)c3ccccc3)cc2c(=O)n1Cc1ccc(-c2ccccc2-c2nnn[nH]2)cc1 (stereo not shown) [Example 56, 2-Butyl-6-(methoxyphenylmethyl)-3-[[2'-(1H-tetrazol-5-yl)[1,1'-biphenyl]-4-yl]methyl]-4(3H)-quinazolinone]
- IC50 [1]: 8.6 nM
- Response change (systolic BP increase to AII) ([2]; 1 mg/kg iv, AII .025 ug/kg, 15 min): 18 mmHg
- Response change (systolic BP increase to AII) ([2]; 1 mg/kg iv, AII .025 ug/kg, 30 min): 27 mmHg
- Response change (systolic BP increase to AII) ([2]; 1 mg/kg iv, AII .025 ug/kg, 60 min): 20 mmHg
- Response change (systolic BP increase to AII) ([2]; 1 mg/kg iv, AII .05 ug/kg, 15 min): 15 mmHg
- Response change (systolic BP increase to AII) ([2]; 1 mg/kg iv, AII .05 ug/kg, 30 min): 15 mmHg
- Response change (systolic BP increase to AII) ([2]; 1 mg/kg iv, AII .05 ug/kg, 60 min): 20 mmHg
- Response change (systolic BP increase to AII) ([2]; 1 mg/kg iv, AII .1 ug/kg, 15 min): 15 mmHg
- Response change (systolic BP increase to AII) ([2]; 1 mg/kg iv, AII .1 ug/kg, 30 min): 20 mmHg
- Response change (systolic BP increase to AII) ([2]; 1 mg/kg iv, AII .1 ug/kg, 60 min): 30 mmHg
- Response change (systolic BP increase to AII) ([2]; 2 mg/kg iv, AII .025 ug/kg, 90 min): 10 mmHg
- Response change (systolic BP increase to AII) ([2]; 2 mg/kg iv, AII .025 ug/kg, 120 min): 20 mmHg
- Response change (systolic BP increase to AII) ([2]; 2 mg/kg iv, AII .025 ug/kg, 150 min): 15 mmHg
- Response change (systolic BP increase to AII) ([2]; 2 mg/kg iv, AII .05 ug/kg, 90 min): 15 mmHg
- Response change (systolic BP increase to AII) ([2]; 2 mg/kg iv, AII .05 ug/kg, 120 min): 15 mmHg
- Response change (systolic BP increase to AII) ([2]; 2 mg/kg iv, AII .05 ug/kg, 150 min): 10 mmHg
- Response change (systolic BP increase to AII) ([2]; 2 mg/kg iv, AII .1 ug/kg, 90 min): 5 mmHg
- Response change (systolic BP increase to AII) ([2]; 2 mg/kg iv, AII .1 ug/kg, 120 min): 15 mmHg
- Response change (systolic BP increase to AII) ([2]; 2 mg/kg iv, AII .1 ug/kg, 150 min): 20 mmHg
- inhibition in vivo at 1 mg/kg ([2]; 0.25 h, 1 mg/kg iv, AII .025 ug/kg, 15 min): 40%
- inhibition in vivo at 1 mg/kg ([2]; 0.25 h, 1 mg/kg iv, AII .05 ug/kg, 15 min): 57%
- inhibition in vivo at 1 mg/kg ([2]; 0.25 h, 1 mg/kg iv, AII .1 ug/kg, 15 min): 57%
- inhibition in vivo at 1 mg/kg ([2]; 0.5 h, 1 mg/kg iv, AII .025 ug/kg, 30 min): 27%
- inhibition in vivo at 1 mg/kg ([2]; 0.5 h, 1 mg/kg iv, AII .05 ug/kg, 30 min): 57%
- inhibition in vivo at 1 mg/kg ([2]; 0.5 h, 1 mg/kg iv, AII .1 ug/kg, 30 min): 43%
- inhibition in vivo at 1 mg/kg ([2]; 1 h, 1 mg/kg iv, AII .025 ug/kg, 60 min): 33%
- inhibition in vivo at 1 mg/kg ([2]; 1 h, 1 mg/kg iv, AII .05 ug/kg, 60 min): 43%
- inhibition in vivo at 1 mg/kg ([2]; 1 h, 1 mg/kg iv, AII .1 ug/kg, 60 min): 14%
- inhibition in vivo at 2 mg/kg ([2]; 1.5 h, 2 mg/kg iv, AII .025 ug/kg, 90 min): 67%
- inhibition in vivo at 2 mg/kg ([2]; 1.5 h, 2 mg/kg iv, AII .05 ug/kg, 90 min): 57%
- inhibition in vivo at 2 mg/kg ([2]; 1.5 h, 2 mg/kg iv, AII .1 ug/kg, 90 min): 86%
- inhibition in vivo at 2 mg/kg ([2]; 2 h, 2 mg/kg iv, AII .025 ug/kg, 120 min): 33%
- inhibition in vivo at 2 mg/kg ([2]; 2 h, 2 mg/kg iv, AII .05 ug/kg, 120 min): 57%
- inhibition in vivo at 2 mg/kg ([2]; 2 h, 2 mg/kg iv, AII .1 ug/kg, 120 min): 57%
- inhibition in vivo at 2 mg/kg ([2]; 2.5 h, 2 mg/kg iv, AII .025 ug/kg, 150 min): 50%
- inhibition in vivo at 2 mg/kg ([2]; 2.5 h, 2 mg/kg iv, AII .05 ug/kg, 150 min): 71%
- inhibition in vivo at 2 mg/kg ([2]; 2.5 h, 2 mg/kg iv, AII .1 ug/kg, 150 min): 43%
